The source of these data is US20080188460A1, “Tricyclic compounds, a process for their preparation and pharmaceutical compositions containing them” (LES LABORATOIRES SERVIER, priority 2007, published 2008).

In one assay the test system is H146 cells. The note with it: at 3 μM, 6 hours exposure. On the procedure:
(§1) This study was carried out on three human tumour cell lines: • 1 small-cell lung carcinoma, H146, • 1 acute myeloid leukaemia, MV4; 11, • 1 leukaemia, RS4; 11.
(§2) The cell lines are cultured in an incubator at 37° C. in the presence of 5% CO2. The H146 and RS4;11 cells are cultured in complete RPMI 1640 medium containing 10% foetal calf serum, 2 mM of glutamine, 50 units/ml of penicillin, 50 μg/ml of streptomycin and 10 mM of Hepes buffer, pH=7.4.
(§3) The cells are distributed onto 6-well plates and exposed to the test compounds for 6 hours. They are then harvested and lysed and the caspase activity is measured in the cell lysates. This enzymatic measurement is carried out by measuring the appearance of a fluorigenic cleavage product (Pharmacia).

In another assay the test system is MV4;11 cells. The note with it: at 0.1 μM, 6 hours exposure. The method, then: as §1, §2, §3
The next assay concerns RS4;11 cells. The note with it: at 1 μM, 6 hours exposure. On the procedure: as §1, §2, §3
For the next assay, the system named is H146. Particulars: read-out: IC50 (concentration of compound that inhibits cell viability by 50%); H146, 48 hours exposure. On the procedure:
(§4) The cytotoxicity studies were carried out on the three tumour lines of Example A. The cells are distributed onto microplates and exposed to the test compounds for 48 hours. The cell viability is then quantified by a colorimetric assay, the Microculture Tetrazolium Assay (Cancer Res., 1987, 47, 939-942).

The test system of another assay is MV4;11. Particulars: read-out: IC50 (concentration of compound that inhibits cell viability by 50%); MV4;11, 48 hours exposure. The method, then: as §4
For the next assay, the system named is RS4;11. Particulars: read-out: IC50 (concentration of compound that inhibits cell viability by 50%); RS4;11, 48 hours exposure. On the procedure:
as §4

For assay [1], the system named is H146 small-cell lung carcinoma cells. The note with it: 100 mg/kg intra-peritoneally every day for 21 days. On the procedure: The anti-tumour activity of the compounds of the invention is evaluated in a xenotransplant model of H146 small-cell lung carcinoma cells.
5×10^6 H146 cells are transplanted sub-cutaneously into immunosuppressed mice (NOD SCID strain). […] The tumour mass is measured twice a week from the commencement of treatment.

Turning to `CN(C)CC[C@H](CSc1ccccc1)Nc1ccc(S(=O)(=O)NC(=O)c2ccc3c(c2)CC[C@@H]2CN(Cc4ccccc4-c4ccc(Cl)cc4)CCN32)cc1[N+](=O)[O-].Cl.Cl` [Example 20], the caspase activity in the assay with H146 cells stood at 22000 IU; in the assay on MV4;11 cells, 20000 IU; in the assay on RS4;11 cells it was 23000 IU. Besides, the figures for the IC50 with H146, in the assay on MV4;11 and in the assay with RS4;11 were 305 nM, 29.5 nM and 16.5 nM, respectively. Also, the “persistence of the effect after the end of treatment” value in assay [1] is on record as “at least 40 days”. Also, the tumour regression result in assay [1] is given as “almost complete tumour regression”.
